Source: US20160257931A1, “METHOD FOR CULTURE OF CORNEAL ENDOTHELIAL CELLS, PROCESS FOR PRODUCTION OF CORNEAL ENDOTHELIAL CELL SHEET FOR TRANSPLANTATION PURPOSES, AND CULTURE KIT FOR CORNEAL ENDOTHELIAL CELLS” (CORNEA REGENERATION INSTITUTE CO., LTD., priority 2010, published 2016)

Columns and labels:
Assay type in all cases: cell-based
[1] = tested on: human corneal endothelial cell; assay: Primary culture of corneal endothelial cells in the presence of ascorbyl 2-phosphate; conditions: for Number of obtained cells in primary culture: Asc-2P(+) 100 μg/ml in basal medium, atelocollagen-coated dish
Protocol: Sclerocorneal segments prepared from 10 examples obtained from human eyes (from 14 to 69 years old) from Rocky Mountain Lions Eye Bank in a low temperature preservation state in a preservation solution (trade name: Optisol manufactured by Chiron corporation). The segments were 6 to 8 days old after death.
The sclerocorneal segments were transferred into a 35 mm petri dish, and the endothelial face was washed with DME medium containing 15% fetal calf serum (FCS) and 2 ng/ml basic fibroblast growth factor (bFGF) (hereinafter to be indicated as the basal medium).
Using ultrafine forceps, the corneal endothelium was peeled off in a sheet with the Descemet's membrane from the corneal inner periphery to the center and transferred into a 35 mm petri dish. The Descemet's membrane segment to which the corneal endothelial cells were attached was further cut into small pieces of about 2 mm square on the petri dish, and only the Descemet's slice pieces without attachment of a parenchymal tissue in a cottony form were recovered in a low adsorption centrifugation tube (manufactured by SUMITOMO BAKELITE Co., Ltd.), and incubated in the basal medium containing 0.2% collagenase (trade name: collagenase A, collagenase activity: >0.15 U/mg, manufactured by Roche K.K.) at 37° C., 5% CO2 for 1-3 hr.
The collagenase-treated cells were diluted with the basal medium, centrifugal washing (20 g, 2 min) was repeated three times, and the cells floating in the supernatant were removed. The cells were diluted with phosphate buffered saline (PBS), and centrifugal washing (20 g, 2 min) was performed once in the same manner. 0.5% Trypsin/0.2% ethylenediamine tetraacetic acid (EDTA) was added to the precipitated cell mass, and the mixture was incubated at 37° C., 5% CO2 for 5 min. The basal medium was added and the mixture was centrifuged (500 g, 5 min) to give cell pellets. The obtained cell pellets were resuspended in the basal medium containing 100 μg/ml ascorbyl 2-phosphate (manufactured by Wako Pure Chemical Industries, Ltd.) and the comparison basal medium without containing the same. The cells were each seeded on a dish prepared by the following method, and cultured in an incubator at 37° C., 5% CO2 for 2-4 weeks while exchanging the medium every 2-3 days.
5 mg/ml Atelocollagen (bovine dermis-derived acidic collagen solution, trade name: IAC-50, manufactured by KOKEN CO., LTD) was diluted 100-fold with 10 mM acetic acid, 1 ml thereof was added to a 35 mm dish, left standing at 37° C. for 1 hr, and washed twice with PBS (2 ml) to prepare a dish coated with atelocollagen.

[2] = tested on: human corneal endothelial cell; assay: Comparison with the conventional culture method on bovine corneal endothelial cell-producing extracellular substrate; conditions: FIG. 3
From the text: According to a conventionally-known method (Miyata K, Drake J, Osakabe Y, Hosokawa Y, Hwang D, Soya K, Oshika T, Amano S. Cornea. 2001 20:59-63), a human corneal endothelial cell was isolated and cultured. The method is briefly described in the following. The cornea was transferred into a 35 mm petri dish, and the endothelial face was washed with the basal medium. Using ultrafine forceps, the corneal endothelium was peeled off in a sheet with Descemet's membrane from the corneal inner periphery to the center, and transferred into a 35 mm petri dish. The Descemet's membrane was further cut into small slice pieces of about 2 mm square on the petri dish, and placed with the endothelial surface facing downward on a dish coated with an extracellular substrate produced by corneal endothelial cells of a fetal calf. The dish was carefully moved into an incubator at 37° C., 5% CO2, and cultured for 2-3 weeks while exchanging the medium every 2-3 days.
In any passage, more cells were obtained in the ascorbyl 2-phosphate addition group, and the total cell number reached after completion of the three passage operations was higher when cultured in the basal medium containing ascorbyl 2-phosphate.

[3] = tested on: human corneal endothelial cell; assay: Subculture of corneal endothelial cells (passage stability)
Protocol: The primary cultured cells (10 donors, 14- to 69-year-old) obtained in the above-mentioned 1 were each subcultured as follows.
The primary cultured cells were washed with PBS and dispersed in 0.5% trypsin/0.2% EDTA. The basal medium was added thereto, the mixture was centrifuged (500 g, 5 min), and suspended in the basal medium containing 100 μg/ml ascorbyl 2-phosphate and comparison basal medium without containing the same. The cells were seeded at 1000 cells/cm^2 on a dish coated with atelocollagen, which was prepared in the same manner as in the above-mentioned 1, and cultured at 37° C., 5% CO2. When the cells reached confluence, a similar passage operation was repeated.

Structure (SMILES): O=C1O[C@H]([C@@H](O)CO)C(O)=C1OP(=O)(O)O [Asc-2P, ascorbyl 2-phosphate]
- Number of obtained cells in primary culture ([1]; donor No. 1, 27 days of culture): 59 ×10e4 cells
- Number of obtained cells in primary culture ([1]; donor No. 2, 21 days of culture): 32 ×10e4 cells
- Number of obtained cells in primary culture ([1]; donor No. 3, 21 days of culture): 35 ×10e4 cells
- Number of obtained cells in primary culture ([1]; donor No. 4, 22 days of culture): 39 ×10e4 cells
- Number of obtained cells in primary culture ([1]; donor No. 5, 26 days of culture): 66 ×10e4 cells
- Number of obtained cells in primary culture ([1]; donor No. 6, 22 days of culture): 27 ×10e4 cells
- Number of obtained cells in primary culture ([1]; donor No. 7, 26 days of culture): 60 ×10e4 cells
- Number of obtained cells in primary culture ([1]; donor No. 8, 23 days of culture): 308 ×10e4 cells
- Number of obtained cells in primary culture ([1]; donor No. 9, 24 days of culture): 405 ×10e4 cells
- Number of obtained cells in primary culture ([1]; donor No. 10, 29 days of culture): 20 ×10e4 cells
- Number of corneal endothelial cells on completion of the primary culture, versus no addition ([1]; all 10 donors (14 to 69 years old), 100 μg/ml): strikingly increased
- Cell form in primary culture ([1]; donor Nos. 5 and 7, basal medium containing ascorbyl 2-phosphate): flagstone-like cell images on the entire face of the culture dish
- Proliferation efficiency versus conventional method [2]: higher proliferation efficiency
- Total cell number reached after completion of the three passage operations, versus conventional method ([2]; atelocollagen plus ascorbyl 2-phosphate versus bovine corneal endothelial cell-producing extracellular substrate): higher
- Number of cells obtained on completion of the subculture, versus no addition ([3]; all 10 cases, 100 μg/ml, seeded at 1000 cells/cm^2, repeated subculture): higher
- Number of cells obtained on repeated subculture, addition group versus non-addition group ([3]; donor No. 8, FIG. 2 (a), (b)): higher
- Cell form on completion of 6 passages ([3]; donor No. 8, FIG. 2 (c)): maintained a flagstone-like form
